# Test results taken from PubChem BioAssay AID588426 (Johns Hopkins Ion Channel Center, 2011).
# Activity calls are given as the source filed them.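 How the source made its calls: active means blocks KCNQ2 potassium channel current at some tested dose, with a fitted dose response curve; inactive means the rest.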
# Target: Potassium voltage-gated channel subfamily KQT member 2 (Rattus norvegicus) (UniProt O88943)
# Test: blockers of rat KCNQ2 potassium current – automated electrophysiology, CHO cells, CRC2, orthogonal assay for KCNQ2 inhibitor project, SAR follow-up (AID 588426)
# Details: KCNQ2-CHO automated patch clamp current
# Sequence of Potassium voltage-gated channel subfamily KQT member 2 (Rattus norvegicus) (O88943 whole entry, looked up): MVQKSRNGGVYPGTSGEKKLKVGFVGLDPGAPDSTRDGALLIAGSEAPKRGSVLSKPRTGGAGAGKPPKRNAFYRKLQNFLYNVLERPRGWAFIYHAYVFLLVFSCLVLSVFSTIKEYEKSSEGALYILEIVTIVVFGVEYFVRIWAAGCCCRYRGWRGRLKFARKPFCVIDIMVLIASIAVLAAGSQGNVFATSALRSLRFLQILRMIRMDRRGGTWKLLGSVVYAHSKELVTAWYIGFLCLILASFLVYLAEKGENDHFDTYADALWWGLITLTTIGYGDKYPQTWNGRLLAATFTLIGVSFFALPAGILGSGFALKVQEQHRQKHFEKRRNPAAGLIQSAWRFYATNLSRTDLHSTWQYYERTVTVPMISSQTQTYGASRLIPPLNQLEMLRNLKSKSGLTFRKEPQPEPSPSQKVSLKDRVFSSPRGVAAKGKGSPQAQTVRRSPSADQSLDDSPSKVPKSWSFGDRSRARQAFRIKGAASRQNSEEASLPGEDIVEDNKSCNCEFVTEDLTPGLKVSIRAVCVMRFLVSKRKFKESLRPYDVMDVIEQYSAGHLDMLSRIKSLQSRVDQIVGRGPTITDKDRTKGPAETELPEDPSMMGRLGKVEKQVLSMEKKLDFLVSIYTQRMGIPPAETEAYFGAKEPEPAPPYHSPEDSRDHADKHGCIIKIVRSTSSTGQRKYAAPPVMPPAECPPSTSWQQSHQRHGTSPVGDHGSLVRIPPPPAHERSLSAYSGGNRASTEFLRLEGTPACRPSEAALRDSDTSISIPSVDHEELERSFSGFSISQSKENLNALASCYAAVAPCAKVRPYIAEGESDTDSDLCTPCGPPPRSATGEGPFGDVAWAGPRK
row,IC50,Compound
1,120 nM,CCC(C(=O)Nc1ccccc1N1CCCC1)c1cccc(OC)c1 (configuration not stated)
2,2220 nM,CC(C)CC(C(=O)Nc1ccccc1N1CCCC1)c1ccccc1 (configuration not stated)
3,17400 nM,CCC(C(=O)Nc1ccccc1N(C)C)c1ccccc1 (configuration not stated)
4,130 nM,CCC(C(=O)Nc1ccccc1N1CCCC1)c1ccc(F)cc1 (configuration not stated)
5,360 nM,CC[C@@H](C(=O)Nc1ccc(N2CCCC2)cc1)c1ccccc1
6,360 nM,CCC(C(=O)Nc1ccccc1N1CCCC1)c1cccc(F)c1 (configuration not stated)
7,390 nM,CCC(C(=O)Nc1ccccc1N1CCCC1)c1cccc(C(F)(F)F)c1 (configuration not stated)
8,210 nM,CCC(C(=O)Nc1ccc(N2CCCC2)cc1)c1ccccc1 (configuration not stated)
9,3310 nM,CCC(C(=O)Nc1ccccc1N1CCCC1)c1ccccc1Cl (configuration not stated)
10,560 nM,O=C(Cc1c(F)cccc1F)Nc1ccccc1N1CCCC1
11,280 nM,CCC(C(=O)Nc1ccccc1N1CCCC1)c1ccc(Cl)cc1 (configuration not stated)
12,80 nM,CC[C@H](C(=O)Nc1ccccc1N1CCCC1)c1ccccc1
13,3500 nM,O=C(Nc1ccccc1N1CCCC1)C(c1ccccc1)C1CC1 (configuration not stated)
14,12700 nM,CCC(C(=O)Nc1ccccc1N1CCOCC1)c1ccccc1 (configuration not stated)
15,29900 nM,O=C(Nc1ccccc1N1CCCC1)[C@@H]1CCCc2ccccc21
16,490 nM,O=C(Cc1cccc(F)c1)Nc1ccccc1N1CCCC1
17,260 nM,CC(C(=O)Nc1ccccc1N1CCCC1)c1ccccc1 (configuration not stated)
18,20200 nM,CCC(C(=O)Nc1ccccc1N1CCCC1)c1ccc(OC)c(OC)c1 (configuration not stated)

# Continued, compound first:
row,Compound,IC50
1,O=C(Nc1ccccc1N1CCCC1)C1CCc2ccccc21 (configuration not stated),330 nM
2,O=C(Cc1cccc(Cl)c1)Nc1ccccc1N1CCCC1,170 nM
3,O=C(Cc1ccc(Cl)cc1)Nc1ccccc1N1CCCC1,800 nM
4,CCC(C(=O)Nc1ccccc1N1CCCC1)c1cccc(C)c1 (configuration not stated),330 nM
5,O=C(Nc1ccccc1N1CCCC1)[C@H]1CCCc2ccccc21,24600 nM
6,CC[C@@H](C(=O)Nc1ccccc1N1CCCC1)c1ccccc1,940 nM
7,CCC(C(=O)Nc1ccccc1N1CCCC1)c1ccc(OC)cc1 (configuration not stated),380 nM
8,CCC(C(=O)Nc1ccccc1N1CCCC1)c1ccc(F)c(F)c1 (configuration not stated),170 nM
9,CCC(C(=O)Nc1ccccc1N1CCCC1)c1cccc(Cl)c1 (configuration not stated),240 nM
10,COc1ccc(CC(=O)Nc2ccccc2N2CCCC2)cc1,1750 nM
11,C[C@H](C(=O)Nc1ccccc1N1CCCC1)c1ccccc1,590 nM
12,O=C(Nc1ccccc1N1CCCC1)[C@@H]1CCc2ccccc21,2290 nM
13,COc1cccc(CC(=O)Nc2ccccc2N2CCCC2)c1,2350 nM
14,C[C@@H](C(=O)Nc1ccccc1N1CCCC1)c1ccccc1,5130 nM
15,O=C(Cc1ccc(F)cc1)Nc1ccccc1N1CCCC1,700 nM
16,CCCC(C(=O)Nc1ccccc1N1CCCC1)c1ccccc1 (configuration not stated),320 nM
17,CCC(C(=O)Nc1ccccc1N1CCCC1)c1ccc(Cl)c(Cl)c1 (configuration not stated),470 nM
18,CCC(C(=O)Nc1ccccc1-n1cccc1)c1ccccc1 (configuration not stated),5270 nM
19,Cc1cccc(CC(=O)Nc2ccccc2N2CCCC2)c1,1320 nM
20,O=C(Cc1ccc(Cl)c(Cl)c1)Nc1ccccc1N1CCCC1,1070 nM
21,O=C(Nc1ccccc1N1CCCC1)[C@H]1CCc2ccccc21,14100 nM
22,CCC(C(=O)Nc1ccccc1Cl)c1ccccc1 (configuration not stated),15000 nM
23,CCC(C(=O)Nc1ccccc1N1CCCC1)c1ccccc1 (configuration not stated),160 nM
24,O=C(Cc1ccccc1Cl)Nc1ccccc1N1CCCC1,950 nM
25,O=C(Cc1ccc(F)c(F)c1)Nc1ccccc1N1CCCC1,1730 nM
26,CCC(C(=O)Nc1ccccc1N1CCCC1)c1ccccc1F (configuration not stated),440 nM
27,CC[C@H](C(=O)Nc1ccc(N2CCCC2)cc1)c1ccccc1,110 nM
28,O=C(Nc1ccccc1N1CCCC1)C(F)c1ccccc1 (configuration not stated),990 nM
29,O=C(Cc1ccccc1)Nc1ccccc1N1CCCC1,740 nM
30,O=C(Cc1cccc(C(F)(F)F)c1)Nc1ccccc1N1CCCC1,350 nM

# Same assay, conditions: KCNQ2-CHO automated patch clamp current; at 30 µM (top of the series)
row,"current change, negative = inhibition",Compound
1,inactive,CCC(C(=O)Nc1ccccc1N1CCCCCCC1)c1ccccc1 (configuration not stated)
2,inactive,CCC(C(=O)Nc1cccc(N2CCCC2)c1)c1ccccc1 (configuration not stated)
3,inactive,O=C(Nc1ccccc1N1CCCC1)C1CCOc2ccccc21 (configuration not stated)
4,inactive,CCC(C(=O)Nc1ccccc1-n1c(C)ccc1C)c1ccccc1 (configuration not stated)
5,inactive,O=C(Cc1ccccc1F)Nc1ccccc1N1CCCC1
6,inactive,CCC(C(=O)Nc1ccccc1N(C)Cc1ccccc1)c1ccccc1 (configuration not stated)
7,inactive,CC(C)C(C(=O)Nc1ccccc1N1CCCC1)c1ccccc1 (configuration not stated)
8,inactive,CCC(C(=O)Nc1ccccc1N1CCCCC1)c1ccccc1 (configuration not stated)

# The next lines start with the compound.
row,Compound,"current change, negative = inhibition"
1,CCC(C(=O)Nc1ccccc1N(C)CC)c1ccccc1 (configuration not stated),inactive
2,O=C(Nc1ccccc1N1CCCC1)C1(c2ccccc2)CC1,inactive
3,CC(C)(C(=O)Nc1ccccc1N1CCCC1)c1ccccc1,inactive
4,CCC(C(=O)Nc1ccccc1OC)c1ccccc1 (configuration not stated),inactive
5,CCC(C(=O)Nc1ccccc1N1C(=O)CCC1=O)c1ccccc1 (configuration not stated),inactive
6,CCC(C(=O)Nc1ccccc1-n1ccnc1)c1ccccc1 (configuration not stated),inactive
